Data: US10112895B2, “Antivirals against molluscum contagiosum virus” (priority 2014, dated 2018)
“Also recorded” adds a separate entry of the source. Like-named read-outs stand apart in the source and are kept apart here.

What was measured:
[1] = tested on: mD4-VV hybrid virus; assay: microbe, parasite or virus in culture; type: cell-based, vaccinia hybrid virus containing mD4 of MCV; details: for EC50: Hybrid virus
[2] = target: T1, mD4 (Molluscum contagiosum virus, UniProt Q98260); assay: Thermal shift (differential scanning fluorimetry) assay with purified 6His-mD4; type: binding; details: difference to DMSO mock treatment
T1 sequence (Q98260 1-226): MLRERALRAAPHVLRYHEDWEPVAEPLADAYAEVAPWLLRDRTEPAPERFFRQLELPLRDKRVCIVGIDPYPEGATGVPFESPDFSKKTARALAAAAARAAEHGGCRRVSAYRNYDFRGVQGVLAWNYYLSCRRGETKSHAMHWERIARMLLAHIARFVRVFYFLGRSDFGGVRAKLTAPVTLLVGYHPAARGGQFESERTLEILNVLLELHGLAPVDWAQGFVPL
Experimental: Thermal shift assay. Thermal shift (differential scanning fluorimetry) assay was performed as previously described. Briefly, 5 μM purified 6His-mD4 was mixed with compounds in thin-wall PCR 96-plate wells at 20 μL total volume containing 25 mM phosphate buffer (pH 6.8), 0.2 M NaCl, 2.5% glycerol, 2% DMSO, 0.005% (w/v) Triton-X100, and 1× Sypro Orange. Fluorescence intensities were monitored using the Applied Biosystems 7500 Fast Real-Time PCR system (Carlsbad, Calif.) at 582 nm from 25-80 ° C. at a rate of 1° C./min To generate melting temperature (Tm), protein melting curves were plotted on GraphPad Prism and fitted to the Boltzmann sigmoidal model. Thermal shift (ΔTm) is the difference between the 2% DMSO mock-treatment and inhibitor treatment. All experiments were duplicated and repeated independently.

[3] = target: mD4-dependent processive DNA synthesis (6His-mD4, vA20 and vE9) (Molluscum contagiosum virus, UniProt Q98260); assay: biochemical; set-up: species or system molluscum contagiosum virus / vaccinia virus
Sequence of mD4-dependent processive DNA synthesis (6His-mD4, vA20 and vE9) (Q98260 1-226): as above

[4] = tested on: vD4-VV rescue virus; assay: microbe, parasite or virus in culture; type: cell-based; details: Orthopoxvirus vaccinia, BSC-1, 16 h, read-out: EC50, plaque reduction of vD4-VV rescue virus
[5] = tested on: mD4-VV hybrid virus; type: cell-based, vaccinia hybrid virus containing mD4 of MCV
[6] = Half-life stability in mouse liver microsomes; type: in vitro ADME; details: for half-life: mouse, liver microsomes
[7] = tested on: BSC-1 cells; details: as previously determined; read-out: cytotoxicity CC50 on BSC-1 cells; cited from earlier work
[8] = target: T1, mD4; assay: Binding to immobilized mD4 by SPR (Surface Plasmon Resonance); details: steady-state response, 1:1 binding model, 0-250 μM, 1% DMSO; read-out: binding affinity KD to mD4 protein by SPR
Experimental: The binding of compound 2 to mD4 was determined by SPR. mD4 was immobilized onto a biosensor chip at ˜3500 RU, and compound 2 was injected at 0-250 μM in buffer with 1% DMSO. The binding affinity KD was determined from the plot of steady-state response (Req) against compound 2 concentrations and fitting to a 1:1 binding model (FIG. 10).

[9] = tested on: mD4-VV hybrid virus; assay: mD4-VV infection of 3-D human skin organ culture (viral titer and histology); type: cell-based; details: for viral titer of mD4-VV in 3-D human skin organ culture: 3 days post infection, compared to DMSO drug vehicle
[10] = tested on: 2-D keratinocyte cultures; assay: Toxicity on 2-D keratinocyte cultures; type: cell-based; details: at the concentrations used in the 3-D culture experiment
[11] = BSC-1, 16 h, read-out: EC50, plaque reduction of mD4-VV hybrid virus

Oc1ccc(NCc2cc(Br)ccc2OCc2ccc(F)cc2)cc1 [Compound 1, 4-[[5-bromo-2-[(4-fluorophenyl)methoxy]phenyl]methylamino]phenol]
EC50 ([1]; BSC-1, read-out: EC50 (mD4-VV)): 19.9 µM

O=[N+]([O-])c1cccc(COc2ccccc2CNc2ccccc2O)c1 [Compound 11, 2-[[2-[(3-nitrophenyl)methoxy]phenyl]methylamino]phenol]
EC50 ([1]; BSC-1, read-out: EC50 (mD4-VV)): 17.7 µM

O=c1[nH]c2ccc(NCc3cc(Cl)ccc3OCc3ccccc3F)cc2[nH]1 [Compound 8, 5-[[5-chloro-2-[(2-fluorophenyl)methoxy]phenyl]methylamino]-1,3-dihydrobenzimidazol-2-one]
EC50 ([1]; BSC-1, read-out: EC50 (mD4-VV)): 11 µM

NS(=O)(=O)c1ccc(NCc2cc(Cl)ccc2OCc2ccccc2)cc1 [Compound 3, 4-[(2-benzyloxy-5-chloro-phenyl)methylamino]benzenesulfonamide]
EC50 ([1]; BSC-1, read-out: EC50 (mD4-VV)): 13.9 µM

Oc1ccc(NCc2ccccc2OCc2ccccc2)cc1 [Compound 10, 4-[(2-benzyloxyphenyl)methylamino]phenol]
Thermal shift (ΔTm) of 6His-mD4 ([2]; 10 μM compound): 2.2 °C | Thermal shift (ΔTm) of 6His-mD4 ([2]; 40 μM compound): 3.3 °C | IC50 [3]: 28 µM | EC50 [1, 11]: 14 µM | EC50 ([1]; BSC-1, read-out: EC50 (mD4-VV)): 35.6 µM | EC50 [4]: 11 µM | mD4-VV genomic DNA accumulation [5]: completely prevented | half-life [6]: 6.7 min | CC50 [7]: 175 µM

Oc1ccc(NCc2ccccc2OCc2ccccc2)c(F)c1 [Compound 12, 4-[(2-benzyloxyphenyl)methylamino]-3-fluoro-phenol]
EC50 ([1]; BSC-1, read-out: EC50 (mD4-VV)): 19.4 µM

O=[N+]([O-])c1cccc(COc2ccccc2CNc2ccc(O)cc2)c1 [Compound 9, 4-[[2-[(3-nitrophenyl)methoxy]phenyl]methylamino]phenol]
EC50 ([1]; BSC-1, read-out: EC50 (mD4-VV)): 13.3 µM

O=c1[nH]c2ccc(NCc3ccccc3OCc3ccccc3)cc2[nH]1 [Compound 2, 5-[(2-benzyloxyphenyl)methylamino]-1,3-dihydrobenzimidazol-2-one]
blocking processive DNA synthesis in vitro [3]: specific blocking processive DNA synthesis in vitro | EC50 [1, 11]: 3 µM | EC50 ([1]; BSC-1, read-out: EC50 (mD4-VV)): 10 µM | Kd [8]: 32.8 µM | viral titer of mD4-VV in 3-D human skin organ culture [9]: blocks mD4-VV viral infection | viral titer of mD4-VV in 3-D human skin organ culture ([9]; listed as compound 2): significant decline in the viral titer | histological analysis of 3-D human skin organ culture infected with mD4-VV ([9]; H&E stained cross-section, 3 days after infection): abundant population of stained keratinocytes was observed; also recorded: protection of the 3-D human skin organ culture | toxicity on 2-D keratinocyte cultures [10]: not toxic | increase of half-life in mouse liver microsomes above compound 10 ([6]; compound 2 versus compound 10): greater than 5 fold | half-life [6]: 36 min

Nc1nc2c(ncn2COCCO)c(=O)[nH]1 [acyclovir, reference compound]
inhibitory effect in plaque reduction assay [1]: no inhibitory effect

O=c1[nH]c2ccc(NCc3ccccc3OCc3ccc(F)cc3)cc2[nH]1 [Compound 6, 5-[[2-[(4-fluorophenyl)methoxy]phenyl]methylamino]-1,3-dihydrobenzimidazol-2-one]
EC50 ([1]; BSC-1, read-out: EC50 (mD4-VV)): 13.9 µM

O=c1[nH]c2ccc(NCc3cc(Br)ccc3OCc3ccccc3)cc2[nH]1 [Compound 7, 5-[(2-benzyloxy-5-bromo-phenyl)methylamino]-1,3-dihydrobenzimidazol-2-one]
EC50 ([1]; BSC-1, read-out: EC50 (mD4-VV)): 11 µM

c1ccc(COc2ccccc2CNc2ccc3[nH]ncc3c2)cc1 [Compound 14, N-[(2-benzyloxyphenyl)methyl]-1H-indazol-5-amine]
EC50 ([1]; BSC-1, read-out: EC50 (mD4-VV)): 7.9 µM

c1ccc(COc2ccccc2CNc2ccc(-c3cnco3)cc2)cc1 [Compound 13, N-[(2-benzyloxyphenyl)methyl]-4-oxazol-5-yl-aniline]
EC50 ([1]; BSC-1, read-out: EC50 (mD4-VV)): 14.4 µM

O=c1[nH]c2ccc(NCc3ccccc3OCc3ccc(Cl)cc3)cc2[nH]1 [Compound 4, 5-[[2-[(4-chlorophenyl)methoxy]phenyl]methylamino]-1,3-dihydrobenzimidazol-2-one]
EC50 ([1]; BSC-1, read-out: EC50 (mD4-VV)): 11 µM
